The source of these data is ChEMBL document CHEMBL1136584, “Synthesis and preliminary biological evaluation of 6-O-[11C]-[(methoxymethyl)benzyl]guanines, new potential PET breast cancer imaging agents for the DNA repair protein AGT” (Bioorg Med Chem Lett, 2003).

Assay [1] concerns the target T1, Methylated-DNA--protein-cysteine methyltransferase (Homo sapiens) (UniProt P16455).
T1 sequence (whole entry): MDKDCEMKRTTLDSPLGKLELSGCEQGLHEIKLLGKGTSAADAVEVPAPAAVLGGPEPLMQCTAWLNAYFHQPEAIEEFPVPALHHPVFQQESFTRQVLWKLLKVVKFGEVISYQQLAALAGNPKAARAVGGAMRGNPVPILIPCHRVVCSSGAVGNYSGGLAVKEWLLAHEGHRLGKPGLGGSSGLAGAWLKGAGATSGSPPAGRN
Kind of assay: In vitro inhibitory activity of compound against AGT (O6-alkylguanine-DNA alkyltransferase) at a concentration of 10 uM using breast cancer MCF cells, expressed as Fmol O6-MeG removed/mg of protein. It counts as cell-based.

For assay [2], the target named is T1, Methylated-DNA--protein-cysteine methyltransferase (Homo sapiens). Kind of assay: In vitro inhibitory activity of compound against AGT (O6-alkylguanine-DNA alkyltransferase) at a concentration of 50 uM using breast cancer MCF cells, expressed as Fmol O6-MeG removed/mg of protein. It is filed as cell-based.
For assay [3] the target is unchanged. Kind of assay: In vitro inhibitory activity of compound against AGT (O6-alkylguanine-DNA alkyltransferase) at a concentration of 0.1 uM using breast cancer MCF cells, expressed as Fmol O6-MeG removed/mg of protein. It is filed as cell-based.
For assay [4] the target is unchanged. Kind of assay: In vitro inhibitory activity of compound against AGT (O6-alkylguanine-DNA alkyltransferase) at a concentration of 1 uM using breast cancer MCF cells, expressed as Fmol O6-MeG removed/mg of protein. It counts as cell-based.
The target is the same in assay [5]. The conditions noted are these: MCF7; 1 uM.
Description: In vitro inhibitory activity of compound against AGT (O6-alkylguanine-DNA alkyltransferase) at a concentration of 1 uM using breast cancer MCF-7 cells, expressed as Fmol O6-MeG removed/mg of protein
For assay [6] the target is unchanged. The following applies: MCF7; 50 uM.
Description: In vitro inhibitory activity of compound against AGT (O6-alkylguanine-DNA alkyltransferase) at a concentration of 50 uM using breast cancer MCF-7 cells, expressed as Fmol O6-MeG removed/mg of protein
For assay [7] the target is unchanged. The following applies: MCF7; 10 uM.
Description: In vitro inhibitory activity of compound against AGT (O6-alkylguanine-DNA alkyltransferase) at a concentration of 10 uM using breast cancer MCF-7 cells, expressed as Fmol O6-MeG removed/mg of protein
Assay [8] has the same target. The conditions noted are these: MCF7; 0.1 uM.
Description: In vitro inhibitory activity of compound against AGT (O6-alkylguanine-DNA alkyltransferase) at a concentration of 0.1 uM using breast cancer MCF-7 cells, expressed as Fmol O6-MeG removed/mg of protein

Molecules are shown by their SMILES.

For the molecule `COCc1ccc(COc2[nH]c(N)nc3ncnc2-3)cc1`, the Activity ((fM of O6-MeG removed) (mg of protein)-1) was found to be 35 in assay [1], 58 in assay [2], 457 in assay [3] and 292 in assay [4].
As for `COCc1cccc(COc2[nH]c(N)nc3ncnc2-3)c1`, the Activity ((fM of O6-MeG removed) (mg of protein)-1) came out at 21 in assay [1], 15 in assay [2], 1640 in assay [3] and 1140 in assay [4].
Regarding `Nc1nc(OCc2ccccc2)c2nc[nH]c2n1`, the Activity ((fM of O6-MeG removed) (mg of protein)-1) is 164 in assay [5], 19 in assay [6], 50 in assay [7] and 2390 in assay [8].
Regarding `COCc1ccccc1COc1[nH]c(N)nc2ncnc1-2`, the Activity ((fM of O6-MeG removed) (mg of protein)-1) in assay [1] worked out at 2490; in assay [2], 660; in assay [3] it was 2340; in assay [4], 2300.
